From the NIST ThermoML archive (doi:10.1021/je0603574)
“And” between values parts separate entries of the source, which are not always exact repeats. Equal entries are not always repeated.

Key:
[1] = 323.15 K; Liquid; Closed cell (Static) method
[2] = excess molar enthalpy (molar enthalpy of mixing); xn = mol fraction of the nth substance listed; conditions: 323.15 K, Liquid, Flow calorimetry

CCCCO [butan-1-ol]
Conditions | vapor or sublimation pressure [kPa]
[1] | 4.61

COC [dimethyl ether] + CCCCO
[2]
Conditions | excess molar enthalpy [kcal/mol]
x1 = 0.0655 | 0.0435
x1 = 0.129 | 0.0805
x1 = 0.1904 | 0.114
x1 = 0.2499 | 0.141
x1 = 0.3076 | 0.161
x1 = 0.3635 | 0.179
x1 = 0.4178 | 0.191
x1 = 0.4705 | 0.199
x1 = 0.5216 | 0.203
x1 = 0.5713 | 0.204
x1 = 0.6196 | 0.199
x1 = 0.6666 | 0.192
x1 = 0.7122 | 0.182
x1 = 0.7567 | 0.167
x1 = 0.7999 | 0.15
x1 = 0.842 | 0.129
x1 = 0.8831 | 0.103
x1 = 0.923 | 0.0729
x1 = 0.962 | 0.0387

CO [methanol]
Conditions | vapor or sublimation pressure [kPa]
[1] | 55.3

COC [dimethyl ether] + CO
[2]
Conditions | excess molar enthalpy [kcal/mol]
x1 = 0.03 | 0.00583
x1 = 0.0614 | 0.0128
x1 = 0.0941 | 0.0203
x1 = 0.1282 | 0.0289
x1 = 0.164 | 0.0375
x1 = 0.2014 | 0.0466
x1 = 0.2406 | 0.0564
x1 = 0.2818 | 0.0664
x1 = 0.325 | 0.0765
x1 = 0.3704 | 0.0863
x1 = 0.4183 | 0.0949
x1 = 0.4688 | 0.104
x1 = 0.5222 | 0.112
x1 = 0.5786 | 0.117
x1 = 0.6384 | 0.12
x1 = 0.7018 | 0.12
x1 = 0.7693 | 0.113
x1 = 0.8412 | 0.0951
x1 = 0.9179 | 0.0605

CCCO [propan-1-ol]
Conditions | vapor or sublimation pressure [kPa]
[1] | 12.32

COC [dimethyl ether]
Conditions | vapor or sublimation pressure
[1] | 1143 kPa and 1142.9 kPa and 1143.2 kPa

COC [dimethyl ether] + CCCO
[2]
Conditions | excess molar enthalpy [kcal/mol]
x1 = 0.0541 | 0.0344
x1 = 0.1078 | 0.0655
x1 = 0.161 | 0.0937
x1 = 0.2138 | 0.118
x1 = 0.2661 | 0.139
x1 = 0.3179 | 0.158
x1 = 0.3693 | 0.173
x1 = 0.4203 | 0.184
x1 = 0.4708 | 0.192
x1 = 0.521 | 0.197
x1 = 0.5707 | 0.197
x1 = 0.62 | 0.195
x1 = 0.6688 | 0.189
x1 = 0.7173 | 0.178
x1 = 0.7654 | 0.164
x1 = 0.8131 | 0.144
x1 = 0.8604 | 0.119
x1 = 0.9073 | 0.0865
x1 = 0.9538 | 0.0466

CCO [ethanol]
Conditions | vapor or sublimation pressure [kPa]
[1] | 29.37

COC [dimethyl ether] + CCO
[2]
Conditions | excess molar enthalpy [kcal/mol]
x1 = 0.0428 | 0.0209
x1 = 0.0862 | 0.0423
x1 = 0.1303 | 0.0624
x1 = 0.175 | 0.0815
x1 = 0.2205 | 0.0994
x1 = 0.2667 | 0.116
x1 = 0.3137 | 0.131
x1 = 0.3614 | 0.145
x1 = 0.4098 | 0.156
x1 = 0.4591 | 0.166
x1 = 0.5092 | 0.171
x1 = 0.5601 | 0.175
x1 = 0.6118 | 0.177
x1 = 0.6645 | 0.173
x1 = 0.718 | 0.166
x1 = 0.7725 | 0.153
x1 = 0.8279 | 0.132
x1 = 0.8842 | 0.102
x1 = 0.9416 | 0.0583
